# Assays:
# [1] = Sensory evaluation of aqueous solution III containing 1-octen-3-one 1 ppb: off-flavor intensity and masking component intensity; details: 1-octen-3-one 1 ppb, average score 0-4
# In short: (§1)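 Nootkatone added to degradation-component solutions in ion-exchanged water and scored by eight experienced panelists. Off-flavor rated 0–4 relative to unmasked solution (4) and plain water (0). Masking-component intensity rated on an absolute 0–4 scale.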
# [2] = Sensory evaluation of aqueous solution IV containing 1,5-octadien-3-one 100 ppt: off-flavor intensity and masking component intensity; details: aqueous solution IV, 1,5-octadien-3-one 100 ppt, average score 0-4
# In short: as §1
# [3] = Overall conclusion of the sensory evaluation across aqueous solutions I to VI
# In short: as §1
# [4] = Sensory evaluation of aqueous solution V containing 1-octen-3-ol 10 ppb: off-flavor intensity and masking component intensity; details: 1-octen-3-ol 10 ppb, average score 0-4
# In short: as §1
# [5] = Overall conclusion of the sensory evaluation across soymilks I and II
# Protocol: (§2) To commercially available soymilk (“Delicious Unadjusted Soymilk” manufactured by Kikkoman Corporation), each degradation component was added to prepare degradation component-added soymilks at the concentrations listed in Table 23. To these degradation component-added soymilks, 1,4-dioxacycloheptadecan-5,17-dione was added at the concentrations listed in Table 23 to confirm the intensity of the off-flavor (masking effect) and the intensity of the masking components (impact on the flavor of the soymilk itself) for each sample.
# Eight experienced panelists were selected to conduct a sensory evaluation similar to that of Example 1.
# The same method as in Example 20 was used to confirm the intensity of the off-flavor (masking effect) derived from unsaturated fatty acids by α-methyl ionone and the intensity of the masking components (impact on the flavor of the soymilk itself).
# The same method as in Example 20 was used to confirm the intensity of the off-flavor (masking effect) derived from unsaturated fatty acids by menthyl 3-hydroxybutyrate and the intensity of the masking components (impact on the flavor of the soymilk itself).
# [6] = Sensory evaluation of aqueous solution I containing (E)-2-nonenal 1 ppb: off-flavor intensity and masking component intensity; details: (E)-2-nonenal 1 ppb, average score 0-4
# In short: as §1
# [7] = Sensory evaluation of aqueous solution II containing (E)-2-octenal 10 ppb: off-flavor intensity and masking component intensity; details: (E)-2-octenal 10 ppb, average score 0-4
# In short: as §1
# [8] = Sensory evaluation of degradation component-added soymilk II (1-octen-3-ol 500 ppb); details: average panel score
# Protocol: as §2
# (§3) Eight experienced panelists were selected to conduct a sensory evaluation similar to that of Example 1. […]
# [9] = Sensory evaluation of degradation component-added soymilk I ((E)-2-nonenal 5 ppb); details: average panel score
# Protocol: as §2, §3
# [10] = Sensory evaluation of aqueous solution VI containing 1,5-octadien-3-ol 10 ppb: off-flavor intensity and masking component intensity; details: aqueous solution VI, 1,5-octadien-3-ol 10 ppb, average score 0-4
# In short: as §1
smiles,measurement,setting,value
"CCC(=O)/C=C/C1C(C)=CCCC1(C)C (stereo not drawn) [α-Methyl Ionone, α-methyl ionone]",Off-Flavor Intensity,[1]; 0.01 ppt added,3.4 points
same,Off-Flavor Intensity,[1]; 0.1 ppt added,3.1 points
same,Off-Flavor Intensity,[1]; 1 ppb added,1.4 points
same,Off-Flavor Intensity,[1]; 1 ppm added,0.3 points
same,Off-Flavor Intensity,[1]; 1 ppt added,2.6 points
same,Off-Flavor Intensity,[1]; 10 ppb added,1.3 points
same,Off-Flavor Intensity,[1]; 10 ppt added,2.3 points
same,Off-Flavor Intensity,[1]; 100 ppb added,0.3 points
same,Off-Flavor Intensity,[1]; 100 ppt added,1.9 points
same,Off-Flavor Intensity,[2]; 0.01 ppt added,3.4 points
same,Off-Flavor Intensity,[2]; 0.1 ppt added,3.3 points
same,Off-Flavor Intensity,[2]; 1 ppb added,1.5 points
same,Off-Flavor Intensity,[2]; 1 ppm added,0.4 points
same,Off-Flavor Intensity,[2]; 1 ppt added,2.9 points
same,Off-Flavor Intensity,[2]; 10 ppb added,1.4 points
same,Off-Flavor Intensity,[2]; 10 ppt added,2.6 points
same,Off-Flavor Intensity,[2]; 100 ppb added,0.8 points
same,Off-Flavor Intensity,[2]; 100 ppt added,1.9 points
same,"concentration that masks the off-flavor and does not affect the flavor of the food and/or beverage itself, lower limit",[3],≥ 0.1 ppt
same,"concentration that masks the off-flavor and does not affect the flavor of the food and/or beverage itself, upper limit",[3],≤ 100 ppb
same,Off-Flavor Intensity,[4]; 0.01 ppt added,3.6 points
same,Off-Flavor Intensity,[4]; 0.1 ppt added,3.3 points
same,Off-Flavor Intensity,[4]; 1 ppb added,1.4 points
same,Off-Flavor Intensity,[4]; 1 ppm added,0.1 points
same,Off-Flavor Intensity,[4]; 1 ppt added,2.8 points
same,Off-Flavor Intensity,[4]; 10 ppb added,0.8 points
same,Off-Flavor Intensity,[4]; 10 ppt added,2.4 points
same,Off-Flavor Intensity,[4]; 100 ppb added,0.5 points
same,Off-Flavor Intensity,[4]; 100 ppt added,1.8 points
same,"concentration that masks the off-flavor and does not affect the flavor of the soymilk itself, lower limit",[5],≥ 100 ppt
same,"concentration that masks the off-flavor and does not affect the flavor of the soymilk itself, upper limit",[5],≤ 100 ppb
same,Off-Flavor Intensity,[6]; 0.01 ppt added,3.9 points
same,Off-Flavor Intensity,[6]; 0.1 ppt added,3.3 points
same,Off-Flavor Intensity,[6]; 1 ppb added,1.5 points
same,Off-Flavor Intensity,[6]; 1 ppm added,0.3 points
same,Off-Flavor Intensity,[6]; 1 ppt added,2.9 points
same,Off-Flavor Intensity,[6]; 10 ppb added,1.0 points
same,Off-Flavor Intensity,[6]; 10 ppt added,2.4 points
same,Off-Flavor Intensity,[6]; 100 ppb added,0.3 points
same,Off-Flavor Intensity,[6]; 100 ppt added,1.8 points
same,Off-Flavor Intensity,[7]; 0.01 ppt added,3.1 points
same,Off-Flavor Intensity,[7]; 0.1 ppt added,2.8 points
same,Off-Flavor Intensity,[7]; 1 ppb added,1.0 points
same,Off-Flavor Intensity,[7]; 1 ppm added,0.3 points
same,Off-Flavor Intensity,[7]; 1 ppt added,2.1 points
same,Off-Flavor Intensity,[7]; 10 ppb added,0.8 points
same,Off-Flavor Intensity,[7]; 10 ppt added,1.5 points
same,Off-Flavor Intensity,[7]; 100 ppb added,0.4 points
same,Off-Flavor Intensity,[7]; 100 ppt added,1.1 points
same,Masking Component Intensity,[8]; 1 ppb added,0.8
same,Off-Flavor Intensity,[8]; 1 ppb added,2.1
same,Masking Component Intensity,[8]; 1 ppm added,3.9
same,Off-Flavor Intensity,[8]; 1 ppm added,0.4
same,Masking Component Intensity,[8]; 10 ppb added,1.4
same,Off-Flavor Intensity,[8]; 10 ppb added,1.3
same,Masking Component Intensity,[8]; 100 ppb added,2.8
same,Off-Flavor Intensity,[8]; 100 ppb added,0.9
same,Masking Component Intensity,[8]; 100 ppt added,0.4
same,Off-Flavor Intensity,[8]; 100 ppt added,2.5
same,Masking Component Intensity,[9]; 1 ppb added,0.8
same,Off-Flavor Intensity,[9]; 1 ppb added,2.6
same,Masking Component Intensity,[9]; 1 ppm added,3.9
same,Off-Flavor Intensity,[9]; 1 ppm added,0.5
same,Masking Component Intensity,[9]; 10 ppb added,1.9
same,Off-Flavor Intensity,[9]; 10 ppb added,1.9
same,Masking Component Intensity,[9]; 100 ppb added,3.1
same,Off-Flavor Intensity,[9]; 100 ppb added,1.0
same,Masking Component Intensity,[9]; 100 ppt added,0.1
same,Off-Flavor Intensity,[9]; 100 ppt added,3.0
same,Off-Flavor Intensity,[10]; 0.01 ppt added,3.5 points
same,Off-Flavor Intensity,[10]; 0.1 ppt added,3.3 points
same,Off-Flavor Intensity,[10]; 1 ppb added,1.4 points
same,Off-Flavor Intensity,[10]; 1 ppm added,0.5 points
same,Off-Flavor Intensity,[10]; 1 ppt added,2.8 points
same,Off-Flavor Intensity,[10]; 10 ppb added,1.4 points
same,Off-Flavor Intensity,[10]; 10 ppt added,2.4 points
same,Off-Flavor Intensity,[10]; 100 ppb added,0.6 points
same,Off-Flavor Intensity,[10]; 100 ppt added,2.0 points
